According to patent publication US5506340A, “Tumor necrosis factor inhibitors” (Centecor, Inc., priority 1994, dated 1996):
No end group written: not given here.

Each substance was assayed against T1, human TNFα (Homo sapiens, UniProt P01375) (assay: p55 receptor/IgG fusion protein binding assay (inhibition of TNFα capture by p55-Ig coated plate)). Conditions: TNFα 25 ng/ml preincubated with peptide, read-out: IC50 (concentration necessary to inhibit TNFα by 50%), inhibition of binding of TNFα to p55TNFr-IgG chimeric construct.
T1 construct: purchased Biosource, Camarillo, Calif
T1 sequence (P01375 77-233 limits assumed): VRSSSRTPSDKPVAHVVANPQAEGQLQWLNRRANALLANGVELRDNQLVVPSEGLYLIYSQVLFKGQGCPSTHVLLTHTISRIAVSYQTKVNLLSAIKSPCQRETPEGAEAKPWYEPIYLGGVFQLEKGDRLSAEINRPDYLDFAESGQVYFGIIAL
Protocol: This assay was designed to identify peptides which bind to human TNFα and thereby prevent the capture of the TNFα by a microtiter plate coated with p55-Ig fusion protein. A constant concentration of human TNFα is preincubated with the test peptide and then incubated on the p55-Ig coated microtiter wells. Bound TNFα is detected using a specific antisera and an alkaline phosphatase-conjugated probe.
A 96-well, U-bottom polyvinylchloride microtiter plate was coated with 50 μl/well of p55-Ig fusion protein at 5 μg/ml in 0.01M sodium phosphate, 0.15M sodium chloride (PBS) by incubation overnight at 4° C. or 2 hours at 37° C. […] 29, 1993 which is incorporated herein by reference. The plate was washed three times with 0.05% Tween-20 in PBS, then blocked, by adding 150 μl/well of assay buffer (10 mM N-2-hydroxyethylpiperazine-N'-[…] (HEPES) pH 7.2, containing 0.1% porcine gelatin, 0.1% Tween-80, and 0.01% sodium azide) and continuing incubation for 1 hour at 37° C. or at 4° C. for 1-7 days.
Lyophilized peptides to be tested were weighed in tared 12×75 mm polystyrene tubes and reconstituted to a concentration of 1.2 mM with assay buffer. Each suspension was sonicated in a water bath for 1-5 minutes and vortexed 15-30 seconds to disperse large particles. Serial dilutions of each peptide suspension were prepared using assay buffer in a 96-well polystyrene microtiter plate. Additional wells received Fab fragment of the mouse/human monoclonal anti-human TNFα antibody cA2 (positive control) or assay buffer (negative control). […] The polystyrene dilution plate was then sealed and incubated 1 hour at room temperature on an orbital mixer set at moderate speed.
Following the sample preincubation, blocker was discarded from the p55-Ig coated plate and blotted dry. Aliquots (50 μl) of each peptide or control were transferred into duplicate wells on the p55-Ig coated plate which was then sealed and incubated 1 hour at 37° C. Duplicate wells containing only assay buffer were included as a plate blank. After incubation the p55-Ig plate was washed three times with 0.05% Tween-20 in PBS.
All incubations were for 1 hour at 37° C. and after each incubation the plate was washed three times with 0.05% Tween-20 in PBS. Fifty microliters of alkaline phosphatase substrate solution (alkaline buffer (Sigma, St. Louis, Mo.) diluted 1:500 in deionized water plus one 5 mg tablet of p-nitrophenyl phosphate (Sigma, St. Louis, Mo.) per 5 ml of diluted buffer) was added to all wells and incubation continued for 20 minutes at room temperature. Color development was stopped by adding to all wells 50 μl of 3N sodium hydroxide. The optical density (OD) at 405 nm was measured on a microtiter plate reader (Molecular Devices Vmax plate reader), with the plate blank wells subtracted as background. The activity of each peptide was then expressed as the percent inhibition of TNFα capture by the p55-Ig plate, relative to the amount of TNFα captured in wells containing only assay buffer (negative control), as follows:
The inhibition of binding of TNFα to p55TNFr-IgG chimeric construct was performed as described above using several embodiments of the invention. The peptides were tested to determine the concentration necessary to inhibit TNFα by 50% (IC50) relative to TNFα activity in the absence of the peptide.

| IC50 [µM] | Substance |
| --- | --- |
| 600 | PGLQEPWLHSMYHGA-NH2 |
| 310 | QEPWLHSMYHGAAFQ-NH2 |

The next lines start with the substance.

| Substance | IC50 [µM] |
| --- | --- |
| MVYPGLQEPWLHSMY-NH2 | 850 |
| WLHSMYHGAAFQLTQ-NH2 | 480 |
| YLAHEVQLFSSQYPF-NH2 | 370 |
